Here are results for eight molecules from patent US20220073883A1, “COMPOSITIONS AND METHODS FOR GENERATION OF HEART FIELD-SPECIFIC PROGENITOR CELLS” (The Johns Hopkins University, priority 2018, published 2022).

Entries after “also recorded” stand apart in the source; their conditions may differ.

Common to all, as to assay type: cell-based, mouse
Test [1] concerns ESC-derived cardiac spheroids (Hcn4-GFP; Tbx1-Cre; Ai9). The test is described as follows: heart field specification: Hcn4-GFP+ and Tbx1-Cre, RFP+ CPCs in cardiac spheroids by FACS at day 5.5. The settings on record: for Bmp4-mediated induction of RFP+ cells (SHF) / Bmp4-mediated induction of GFP+ cells (FHF): in combination with Bmp4 (1.25 ng/ml), Noggin 100 ng/ml, dorsomorphin, K2288, DMH1 100 nM; for Bmp4-mediated induction of RFP+ cells (SHF): IWP-2 0.5 μM. The text has this:
Next, an embryonic stem cell (ESC) line (ESCHcn4-GFP; Tbx1-Cre Ai9) was established from the mice to determine if heart field specification can be recapitulated in a PSC system. It was hypothesized that a 3D multicellular system would better resemble heart field development in vivo, as early development is a highly dynamic process that involves tissue-tissue interactions between multiple cell types. Since CPCs are specified during mid-late gastrulation 7, 8, multicellular 3D spheroids were generated with the PSCs and treated them with various concentrations of Activin A and Bmp4 to determine whether induction of the early mesoderm influences heart field specification (FIGS. 1C and 1D).
IPA utilizes an input gene list and a curated database of literature-derived pathways to infer which canonical pathways are most significant to the input data set. The analysis was focused on pathways related to ‘organism growth and development’. […] The effect of Bmp signals was evaluated during heart field specification. In order to minimize the possibility of influencing heart field cells after induction, all of the data were analyzed within 12 hs after the appearance of GFP^+/RFP^+ cells.
(§1) Mouse ESCs and human iPSCs were maintained and differentiated as previously described^5, 43, 68 Briefly, mESCs were maintained on gelatin-coated dishes in maintenance medium (Glasgow minimum essential medium supplemented with 10% fetal bovine serum and […] Chir99021 and 1 μM PD98059 or 1000 U/ml ESGRO (Millipore, Billerica, Mass.), Glutamax, sodium pyruvate, MEM non-essential amino acids (Thermo Fisher Scientific). For spheroid formation and differentiation, mouse ESCs were plated in IMDM/Ham's F12 (Cellgro) (3:1) supplemented with N2, B27, penicillin/streptomycin, 2 mM GlutaMAX, 0.05% BSA, 5 ng/ml L-ascorbic acid (Sigma-Aldrich) and α-monothioglycerol (MTG; Sigma-Aldrich) at a final density of 100,000 cells/ml to allow spheroid formation. After 48 h spheroids were collected and transferred to ultra-low attachment plastic surface and induced for 40 hours with Activin A, Bmp4, Wnt3A, Wnt5A, Wnt11 (R&D Systems) alone or in combination. Human iPSCs were maintained in Geltrex-coated T25 flasks using Essential 8 medium. For spheroid formation and differentiation, hiPSCs were plated in RPMI plus B27 minus insulin with Bmp4 and CHIR99021 and incubated for 48 h. After 48 h media was changed to RPMI plus B27 minus insulin. The hiPSC line used in this study was developed by Dr. Linzhao Cheng, the Johns Hopkins University, and had was generated from a de-identified patient using an approved IRB protocol.
Mouse embryos (E7.75) were dissected using forceps under a stereomicroscope (Zeiss) and regions of interest were dissociated and harvested using TrypLE. Embryoid bodies (EBs) and cells were dissociated and harvested using TrypLE. Single-cells were analyzed for RFP/GFP expression or sorted using a SH800 Cell sorter (Sony Biotechnologies). Live cells were analyzed for RFP and GFP expression and stained with antibodies targeting for the presence of appropriate markers. […] Data was analyzed using FlowJo software.

The test system of test [2] is ESC-derived cardiac spheroids. In words: qPCR of FHF (tbx5, hcn4) and SHF (tbx1, fgf10) markers in treated spheroids. The following applies: in combination with Bmp4 (1.25 ng/ml), Wnts 100 ng/ml, dorsomorphin, K2288, DMH1 100 nM; for expression of SHF markers (tbx1, fgf10): IWP-2 0.5 μM. The protocol: To investigate the crosstalk between Bmp and Wnt signals, the spheroids were treated with Bmp4 and Wnts in combinations and analyzed expression levels of FHF (tbx5, hcn4) and SHF (tbx1, fgf10) markers.
as §1
RNA isolation was performed using either RNeasy Micro Kit (Cat #74004, Qiagen) or […]® PicoPure® RNA Isolation Kit following the manufacturer's instructions, and cDNA was generated using the high-capacity cDNA reverse transcription kit (Applied Biosystems). qPCR reactions were performed using the Taqman (Applied Biosystems) or Sybr Select qPCR mix (Thermo Fisher) with indicated primers. Gene expression levels were normalized to Gapdh. For the clonal cell-fate analysis, single Isl1-Cre RFP+, Cxcr4− and Isl1-Cre RFP^+, Cxcr4^+ cells were sorted at day 5.5 into 384-well plates and allowed to grow and differentiate for 7 days. […] RNA was isolated from 24 wells with colonies from Cxcr4− and Cxcr4+ sorted cells, respectively. Ct values<30 were considered positive. All samples were also analyzed for gapdh to exclude false-positive results.

A further test concerns canonical Wnt activity. In words: Topflash luciferase assay. The following applies: in combination with Bmp4 (1.25 ng/ml); 88 h of differentiation. The protocol:
To test this, canonical Wnt activity was measured with its readout Topflash.
For Tbx1 and Tbx5 knockdown experiments, Tbx1 and Tbx5 ON-TARGETplus SMARTpool siRNA or scrambled siRNA (Dharmacon/Thermo Fisher Scientic) was used at 5 nM for cell transfection. Cells were transfected with Lipofectamine LTX (Life Technologies) in single-cell suspensions. For TOP-flash luciferase assays, mESCs were transfected with Topflash constructs and Renilla constructs and analyzed as previously described 5.

Where [3] appears, read: increasing levels of the factor, day 5.5.

Turning to `Cc1ccc2nc(NC(=O)CSc3nc4c(c(=O)n3-c3ccccc3)SCC4)sc2c1` [IWP-2, reference compound], in test [1], the “Bmp4-mediated induction of RFP+ cells (SHF)” value is given as “abolished”. In addition, in test [2], the “expression of SHF markers (tbx1, fgf10)” value was “suppressed”.

Regarding `c1cc(-c2cnn3cc(-c4ccc(OCCN5CCCCC5)cc4)cnc23)ccn1` [dorsomorphin, reference compound], in the test on canonical Wnt activity, the “topflash / Wnt activity” value is “no effect”.

For the molecule `COc1cc(-c2cc(-c3cccc(O)c3)cnc2N)cc(OC)c1OC` [K2288, reference compound], in test [1], the “Bmp4-mediated induction of RFP+ cells (SHF)” value is “without significantly affecting” and the “Bmp4-mediated induction of GFP+ cells (FHF)” value is reported as “suppressed”. In test [2], the “expression of SHF markers (tbx1, fgf10)” value was “without significantly affecting” and the “expression of FHF markers (tbx5, hcn4)” value was “suppressed”. Besides, in the test with canonical Wnt activity, the “topflash / Wnt activity” value is “without significantly affecting”.

Turning to `CC(C)Oc1ccc(-c2cnc3c(-c4ccnc5ccccc45)cnn3c2)cc1` [DMH1, reference compound], in test [1], the “Bmp4-mediated induction of RFP+ cells (SHF)” value is recorded as “without significantly affecting” and the “Bmp4-mediated induction of GFP+ cells (FHF)” value is on record as “suppressed”. Further, in test [2], the “expression of SHF markers (tbx1, fgf10)” value was “without significantly affecting” and the “expression of FHF markers (tbx5, hcn4)” value is given as “suppressed”. Also, the “topflash / Wnt activity” value with canonical Wnt activity is “without significantly affecting”.

B1: Wnt5A: Wnt protein (noncanonical) (protein, UniProt P41221 62-380, looked up)
Protein Wnt-5a: IIGAQPLCSQLAGLSQGQKKLCHLYQDHMQYIGEGAKTGIKECQYQFRHRRWNCSTVDNTSVFGRVMQIGSRETAFTYAVSAAGVVNAMSRACREGELSTCGCSRAARPKDLPRDWLWGGCGDNIDYGYRFAKEFVDARERERIHAKGSYESARILMNLHNNEAGRRTVYNLADVACKCHGVSGSCSLKTCWLQLADFRKVGDALKEKYDSAAAMRLNSRGKLVQVNSRFNSPTTQDLVYIDPSPDYCVRNESTGSLGTQGRLCNKTSEGMDGCELMCCGRGYDQFKTVQTERCHCKFHWCCYVKCKKCTEIVDQFVCK
In the case of B1, in test [2], the “expression of SHF markers (tbx1, fgf10)” value is on record as “overall reduction” and the “expression of FHF markers (tbx5, hcn4)” value is reported as “overall reduction”.

B2: Noggin: blocks Bmps from binding their receptors (protein, UniProt Q13253 28-232, looked up)
Noggin: QHYLHIRPAPSDNLPLVDLIEHPDPIFDPKEKDLNETLLRSLLGGHYDPGFMATSPPEDRPGGGGGAAGGAEDLAELDQLLRQRPSGAMPSEIKGLEFSEGLAQGKKQRLSKKLRRKLQMWLWSQTFCPVLYAWNDLGSRFWPRYVKVGSCFSKRSCSVPEGMVCKPSKSVHLTVLRWRCQRRGGQRCGWIPIQYPIISECKCSC
For the molecule B2, in test [1], the “Bmp4-mediated induction of RFP+ cells (SHF)” value is “abolished” and the “Bmp4-mediated induction of GFP+ cells (FHF)” value is reported as “abolished”. In addition, in the test with canonical Wnt activity, the “topflash / Wnt activity” value is “markedly reduced; also recorded: inhibition”.

B3: Wnt11: Wnt protein (noncanonical) (protein, UniProt O96014 25-354, looked up)
Protein Wnt-11: IKWLALSKTPSALALNQTQHCKQLEGLVSAQVQLCRSNLELMHTVVHAAREVMKACRRAFADMRWNCSSIELAPNYLLDLERGTRESAFVYALSAAAISHAIARACTSGDLPGCSCGPVPGEPPGPGNRWGGCADNLSYGLLMGAKFSDAPMKVKKTGSQANKLMRLHNSEVGRQALRASLEMKCKCHGVSGSCSIRTCWKGLQELQDVAADLKTRYLSATKVVHRPMGTRKHLVPKDLDIRPVKDSELVYLQSSPDFCMKNEKVGSHGTQDRQCNKTSNGSDSCDLMCCGRGYNPYTDRVVERCHCKYHWCCYVTCRRCERTVERYVCK
On to B3, for which, in test [2], the “expression of SHF markers (tbx1, fgf10)” value is on record as “overall reduction” and the “expression of FHF markers (tbx5, hcn4)” value is reported as “overall reduction”.

B4: Wnt3A: Wnt protein (canonical) (protein, UniProt P56704 19-352, looked up)
Protein Wnt-3a: SYPIWWSLAVGPQYSSLGSQPILCASIPGLVPKQLRFCRNYVEIMPSVAEGIKIGIQECQHQFRGRRWNCTTVHDSLAIFGPVLDKATRESAFVHAIASAGVAFAVTRSCAEGTAAICGCSSRHQGSPGKGWKWGGCSEDIEFGGMVSREFADARENRPDARSAMNRHNNEAGRQAIASHMHLKCKCHGLSGSCEVKTCWWSQPDFRAIGDFLKDKYDSASEMVVEKHRESRGWVETLRPRYTYFKVPTERDLVYYEASPNFCEPNPETGSFGTRDRTCNVSSHGIDGCDLLCCGRGHNARAERRREKCRCVFHWCCYVSCQECTRVYDVHTCK
In the case of B4, in test [1] (setting [3]), the “induction of GFP+ cells (FHF)” value was “did not affect” and the “induction of RFP+ cells (SHF)” value is recorded as “increased numbers”. Also, in test [2], the “expression of SHF markers (tbx1, fgf10)” value was “further increase” and the “expression of FHF markers (tbx5, hcn4)” value was “reduction”. Moreover, the “topflash / Wnt activity” value with canonical Wnt activity is listed as “further increased”.
